In patent US10294248B2, “Beta-lactamase inhibitors” (VenatoRx Pharmaceuticals, Inc., priority 2013, dated 2019):

Legend:
[1] = test system: P. aeruginosa Ps296 expressing VIM-2; assay: Broth microdilution MIC, P. aeruginosa Ps296 VIM-2; type: cell-based; details: fixed 4 μg/mL meropenem; CAMHB, 16-20 hours at 37° C.
Summary of the method: (§1)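 Potentiation MIC by CLSI broth microdilution in cation-adjusted Mueller Hinton broth. Test compound was 2-fold serially diluted from 32 to 0.25 μg/ml with a β-lactam held at a static 4 μg/ml. After 16-20 h at 37° C, MIC was read visually.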

[2] = molecular target: T1, KPC-2 β-lactamase (Class A carbapenemase) (Klebsiella pneumoniae, UniProt Q9F663); assay: β-Lactamase inhibition, KPC-2; type: biochemical; details: imipenem substrate, 300 nm; 15 min preincubation at 37° C., PBS pH 7.4
T1 construct: made in house; host or cells: E. coli BL21(DE3)
Summary of the method: (§2)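 Native untagged enzymes expressed in E. coli BL21(DE3), purified by cation exchange and gel filtration. Inhibitor preincubated with enzyme 15 min at 37 °C; hydrolysis followed by absorbance: imipenem at 300 nm for KPC-2, cefotaxime at 260 nm for SHV-5. IC50 as concentration halving initial hydrolysis rate versus inhibitor-free wells.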

[3] = test system: E. coli ESBL4 expressing CTX-M-15; assay: Broth microdilution MIC, E. coli ESBL4 CTX-M-15; type: cell-based; details: fixed 4 μg/mL ceftazidime; CAMHB, 16-20 hours at 37° C.
Summary of the method: as §1

[4] = molecular target: T2, OXA-1 β-lactamase (Class D oxacillinase) (Escherichia coli, UniProt P13661); assay: β-Lactamase inhibition, OXA-1; type: biochemical; details: nitrocefin 100 μM, 486 nm; 15 min preincubation at 37° C., PBS pH 7.4
T2 construct: made in house; host or cells: E. coli BL21(DE3)
Summary of the method: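 Untagged enzyme from E. coli BL21(DE3), purified by Capto S then Superdex 75; 15 min 37 °C preincubation with inhibitor; KPC-2 read with imipenem at 300 nm, SHV-5 with cefotaxime at 260 nm, OXA-1 with nitrocefin 100 μM final at 486 nm; 10 min kinetic read; IC50 vs uninhibited wells.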

[5] = molecular target: T3, SHV-5 β-lactamase (Class A ESBL) (Klebsiella pneumoniae, UniProt P0A3M1); assay: β-Lactamase inhibition, SHV-5; type: biochemical
T3 construct: made in house; host or cells: E. coli BL21(DE3)
Summary of the method: as §2

[6] = test system: K. pneumoniae 156319 expressing KPC-3; assay: Broth microdilution MIC, K. pneumoniae 156319 KPC-3; type: cell-based; details: fixed 4 μg/mL meropenem; CAMHB, 16-20 hours at 37° C.
Summary of the method: as §1

[7] = test system: E. cloacae 144200 expressing Class C P99 AmpC; assay: Broth microdilution MIC, E. cloacae 144200 p99 AmpC; type: cell-based; details: fixed 4 μg/mL ceftazidime; CAMHB, 16-20 hours at 37° C.
Summary of the method: as §1

[8] = test system: S. aureus MSSA-7 producing penicillinase PC-1; assay: Broth microdilution MIC, S. aureus MSSA-7 PC-1; type: cell-based; details: fixed 4 μg/mL piperacillin; CAMHB, 16-20 hours at 37° C.
Summary of the method: as §1

[9] = molecular target: T4, VIM-2 metallo-β-lactamase (Class B) (Pseudomonas aeruginosa, UniProt Q9K2N0); assay: β-Lactamase inhibition, VIM-2; type: biochemical; details: nitrocefin 100 μM, 486 nm; 15 min preincubation at 37° C., PBS pH 7.4
T4 construct: made in house; host or cells: E. coli BL21(DE3)
Summary of the method: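 Purified VIM-2 (Q sepharose anion exchange, Hepes pH 7.5, >90% pure) was preincubated with inhibitor at 37 °C for 15 min, then nitrocefin added at 100 μM final. Absorbance at 486 nm was followed for 10 min; IC50 was taken from maximum hydrolysis rates relative to inhibitor-free controls.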

[10] = test system: K. pneumoniae A-1797 expressing KPC-2 and VIM-4; assay: Broth microdilution MIC, K. pneumoniae A-1797 KPC-2/VIM-4; type: cell-based; details: fixed 4 μg/mL meropenem; CAMHB, 16-20 hours at 37° C.
Summary of the method: as §1

[11] = molecular target: T5, p99 AmpC β-lactamase (Class C) (Enterobacter cloacae, UniProt P05364); assay: β-Lactamase inhibition, p99 AmpC; type: biochemical
T5 construct: made in house; host or cells: E. coli BL21(DE3)
T5 sequence (P05364 21-381): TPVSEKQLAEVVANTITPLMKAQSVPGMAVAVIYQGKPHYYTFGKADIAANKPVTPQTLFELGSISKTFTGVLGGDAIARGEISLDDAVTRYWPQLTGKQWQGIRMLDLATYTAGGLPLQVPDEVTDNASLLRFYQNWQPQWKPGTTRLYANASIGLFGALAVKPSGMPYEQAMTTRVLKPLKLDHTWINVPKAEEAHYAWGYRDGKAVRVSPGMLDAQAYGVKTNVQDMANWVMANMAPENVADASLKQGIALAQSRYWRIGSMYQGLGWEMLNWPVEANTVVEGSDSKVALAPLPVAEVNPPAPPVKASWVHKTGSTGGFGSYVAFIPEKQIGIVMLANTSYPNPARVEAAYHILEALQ

T1 sequence (Q9F663 25-293, looked up): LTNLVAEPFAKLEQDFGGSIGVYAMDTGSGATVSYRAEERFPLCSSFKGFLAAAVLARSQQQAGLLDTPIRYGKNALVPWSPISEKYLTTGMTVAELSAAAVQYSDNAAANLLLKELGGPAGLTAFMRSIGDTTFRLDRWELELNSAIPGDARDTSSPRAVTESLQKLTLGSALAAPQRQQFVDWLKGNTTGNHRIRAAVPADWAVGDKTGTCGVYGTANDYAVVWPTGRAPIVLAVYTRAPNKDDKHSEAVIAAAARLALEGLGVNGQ
T2 sequence (P13661 26-276): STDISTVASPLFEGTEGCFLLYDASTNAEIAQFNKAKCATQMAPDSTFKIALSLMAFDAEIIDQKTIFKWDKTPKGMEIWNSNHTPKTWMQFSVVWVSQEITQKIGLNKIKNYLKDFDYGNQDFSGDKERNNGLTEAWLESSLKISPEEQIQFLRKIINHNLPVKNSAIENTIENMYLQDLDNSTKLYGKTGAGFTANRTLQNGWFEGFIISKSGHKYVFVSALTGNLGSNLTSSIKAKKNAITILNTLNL
T3 sequence (P0A3M1 22-286): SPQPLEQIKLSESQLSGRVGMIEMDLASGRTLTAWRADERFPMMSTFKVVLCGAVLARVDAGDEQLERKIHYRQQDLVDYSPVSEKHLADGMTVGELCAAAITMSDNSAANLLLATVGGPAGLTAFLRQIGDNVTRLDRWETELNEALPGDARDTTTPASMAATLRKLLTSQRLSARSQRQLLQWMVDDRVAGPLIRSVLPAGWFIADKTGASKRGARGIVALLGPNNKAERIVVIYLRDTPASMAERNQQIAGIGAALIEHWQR

SMILES | MIC of example compound in presence of fixed β-lactam: Fixed Mero, P. aerug. Ps296 VIM-2 [1] | IC50 [2] | MIC of example compound in presence of fixed β-lactam: Fixed CAZ, E. coli ESBL4 CTX-M-15 [3] | IC50 [4] | IC50 [5] | MIC of example compound in presence of fixed β-lactam: Fixed Mero, K. P. 156319 KPC-3 [6] | MIC of example compound in presence of fixed β-lactam: Fixed CAZ, E. cl. 144200 p99 AmpC [7] | MIC of example compound in presence of fixed β-lactam: Fixed Pip, S. aureus MSSA-7 PC-1 [8] | IC50 [9] | MIC of example compound in presence of fixed β-lactam: Fixed Mero, K. P. A-1797 KPC-2 VIM-4 [10] | IC50 [11]
NCCN1CCC(CCC(=O)N[C@H]2Cc3cccc(C(=O)O)c3OB2O)CC1 [Example 31, 3-{3-[1-(2-Amino-ethyl)-piperidin-4-yl]-propionylamino}-2-hydroxy-3,4-dihydro-2H-benzo[e][1,2]oxaborinine-8-carboxylic acid] | C (the MIC in the presence of <4 μg/mL of a β-lactamase inhibitor) | < 100 nM | C (the MIC in the presence of <4 μg/mL of a β-lactamase inhibitor) | < 100 nM | 100 to 1000 nM | C (the MIC in the presence of <4 μg/mL of a β-lactamase inhibitor) | C (the MIC in the presence of <4 μg/mL of a β-lactamase inhibitor) | C (the MIC in the presence of <4 μg/mL of a β-lactamase inhibitor) | 1 to 10 µM | B (the MIC in the presence of between 8 and 32 μg/mL of a β-lactamase inhibitor) | < 100 nM
O=C(CC1CCNCC1)N[C@H]1Cc2cccc(C(=O)O)c2OB1O [Example 32, 2-Hydroxy-3-(2-piperidin-4-yl-acetylamino)-3,4-dihydro-2H-benzo[e][1,2]oxaborinine-8-carboxylic acid] | A (an MIC of the fixed β-lactam antibiotic in the presence of >32 μg/mL of a β-lactamase inhibitor) | 100 to 1000 nM | C (the MIC in the presence of <4 μg/mL of a β-lactamase inhibitor) | 100 to 1000 nM | 10000 to 100000 nM | A (an MIC of the fixed β-lactam antibiotic in the presence of >32 μg/mL of a β-lactamase inhibitor) | C (the MIC in the presence of <4 μg/mL of a β-lactamase inhibitor) | C (the MIC in the presence of <4 μg/mL of a β-lactamase inhibitor) | 10 to 100 µM | A (an MIC of the fixed β-lactam antibiotic in the presence of >32 μg/mL of a β-lactamase inhibitor) | < 100 nM
N=C(N)NCCN1CCC(CCC(=O)N[C@H]2Cc3cccc(C(=O)O)c3OB2O)CC1 [Example 34, 3-{3-[1-(2-Guanidino-ethyl)-piperidin-4-yl]-propionylamino}-2-hydroxy-3,4-dihydro-2H-benzo[e][1,2]oxaborinine-8-carboxylic acid] | A (an MIC of the fixed β-lactam antibiotic in the presence of >32 μg/mL of a β-lactamase inhibitor) | 100 to 1000 nM | C (the MIC in the presence of <4 μg/mL of a β-lactamase inhibitor) | 100 to 1000 nM | < 100 nM | A (an MIC of the fixed β-lactam antibiotic in the presence of >32 μg/mL of a β-lactamase inhibitor) | C (the MIC in the presence of <4 μg/mL of a β-lactamase inhibitor) | C (the MIC in the presence of <4 μg/mL of a β-lactamase inhibitor) | 10 to 100 µM | A (an MIC of the fixed β-lactam antibiotic in the presence of >32 μg/mL of a β-lactamase inhibitor) | 100 to 1000 nM
N#CCN1CCC(CC(=O)N[C@H]2Cc3cccc(C(=O)O)c3OB2O)CC1 [Example 35, 3-[2-(1-Cyanomethyl-piperidin-4-yl)-acetylamino]-2-hydroxy-3,4-dihydro-2H-benzo[e][1,2]oxaborinine-8-carboxylic acid] | A (an MIC of the fixed β-lactam antibiotic in the presence of >32 μg/mL of a β-lactamase inhibitor) | 100 to 1000 nM | C (the MIC in the presence of <4 μg/mL of a β-lactamase inhibitor) | 100 to 1000 nM | 100 to 1000 nM | B (the MIC in the presence of between 8 and 32 μg/mL of a β-lactamase inhibitor) | C (the MIC in the presence of <4 μg/mL of a β-lactamase inhibitor) | C (the MIC in the presence of <4 μg/mL of a β-lactamase inhibitor) | 10 to 100 µM | B (the MIC in the presence of between 8 and 32 μg/mL of a β-lactamase inhibitor) | 100 to 1000 nM
NCCN1CCN(CC(=O)N[C@H]2Cc3cccc(C(=O)O)c3OB2O)C(=O)C1 [Example 36, 3-{2-[4-(2-Amino-ethyl)-2-oxo-piperazin-1-yl]-acetylamino}-2-hydroxy-3,4-dihydro-2H-benzo[e][1,2]oxaborinine-8-carboxylic acid] | B (the MIC in the presence of between 8 and 32 μg/mL of a β-lactamase inhibitor) | 100 to 1000 nM | C (the MIC in the presence of <4 μg/mL of a β-lactamase inhibitor) | < 100 nM | < 100 nM | B (the MIC in the presence of between 8 and 32 μg/mL of a β-lactamase inhibitor) | C (the MIC in the presence of <4 μg/mL of a β-lactamase inhibitor) | C (the MIC in the presence of <4 μg/mL of a β-lactamase inhibitor) | 1 to 10 µM | B (the MIC in the presence of between 8 and 32 μg/mL of a β-lactamase inhibitor) | < 100 nM
N=C(N)NCC1CCCN(CC(=O)N[C@H]2Cc3cccc(C(=O)O)c3OB2O)C1 (stereo partly drawn) [Example 37, 3-[2-(3-Guanidinomethyl-piperidin-1-yl)-acetylamino]-2-hydroxy-3,4-dihydro-2H-benzo[e][1,2]oxaborinine-8-carboxylic acid] | A (an MIC of the fixed β-lactam antibiotic in the presence of >32 μg/mL of a β-lactamase inhibitor) | 100 to 1000 nM | C (the MIC in the presence of <4 μg/mL of a β-lactamase inhibitor) | 100 to 1000 nM | 100 to 1000 nM | C (the MIC in the presence of <4 μg/mL of a β-lactamase inhibitor) | C (the MIC in the presence of <4 μg/mL of a β-lactamase inhibitor) | C (the MIC in the presence of <4 μg/mL of a β-lactamase inhibitor) | 0.1 to 1 µM | B (the MIC in the presence of between 8 and 32 μg/mL of a β-lactamase inhibitor) | < 100 nM
